# Key:
# [1] = system: duck salad; experiment: Test D paddy water application plant response rating 0 to 100; type: in vivo, Heteranthera limosa; conditions: approx. 21 days
# Source text: (§1) Plastic pots were partially filled with silt loam soil. The soil was then saturated with water. […] After planting, water levels were raised to 3 cm above the soil surface and maintained at this level throughout the test. Chemical treatments were formulated in a non-phytotoxic solvent and applied directly to the paddy water. Treated plants and controls were maintained in a greenhouse for approximately 21 days, after which all species were compared to controls and visually evaluated. […] A dash (-) response means no test result.
# [2] = system: barnyardgrass; experiment: Test E paddy water application plant response rating 0 to 100; type: in vivo, Echinochloa crus-galli; conditions: Flood, 0 to 100 scale, approx. 21 days
# Source text: (§2) Plastic pots were partially filled with silt loam soil. […] At testing, the water level for all plantings was raised to 2 cm above the soil surface. Chemical treatments were formulated in a non-phytotoxic solvent and applied directly to the paddy water. Treated plants and controls were maintained in a greenhouse for approximately 21 days, after which all species were compared to controls and visually evaluated. […] A dash (-) response means no test result.
# [3] = system: Japonica rice; experiment: Test D paddy water application plant response rating 0 to 100; type: in vivo, Oryza sativa; conditions: approx. 21 days
# Source text: as §1
# [4] = system: barnyardgrass; experiment: as above; type: in vivo, Echinochloa crus-galli; conditions: approx. 21 days
# Source text: as §1
# [5] = system: waterchestnut; experiment: as above; type: in vivo, Eleocharis spp.; conditions: approx. 21 days
# Source text: as §1
# [6] = system: Japonica rice; experiment: Test E paddy water application plant response rating 0 to 100; type: in vivo, oryza sativa; conditions: Flood, 0 to 100 scale, approx. 21 days
# Source text: as §2
# [7] = system: arrowhead; experiment: Test D paddy water application plant response rating 0 to 100; type: in vivo, Sagittaria spp.; conditions: approx. 21 days
# Source text: as §1
# [8] = system: umbrella sedge; experiment: as above; type: in vivo, Cyperus difformis; conditions: approx. 21 days
# Source text: as §1
# [9] = Rate 500 g/ha, 0 to 100 scale (0 no effect, 100 complete control)
structure (smiles),measurement,setting,value
Fc1cc(Cl)ccc1-c1nn2c(c1Br)CCCC2 [Compound 52],Duck salad plant response rating,"[1]; Rate 32 g/ha, 0 to 100 scale",0
same,Duck salad plant response rating,"[1]; Rate 64 g/ha, 0 to 100 scale",10
same,Duck salad plant response rating,"[1]; Rate 125 g/ha, 0 to 100 scale",80
same,Duck salad plant response rating,"[1]; Rate 250 g/ha, 0 to 100 scale",80
same,Duck salad plant response rating,[1]; [9],100
same,Barnyardgrass 2 plant response rating,[2]; Rate 8 g/ha,40
same,Barnyardgrass 3 plant response rating,[2]; Rate 8 g/ha,35
same,Barnyardgrass 2 plant response rating,[2]; Rate 16 g/ha,45
same,Barnyardgrass 3 plant response rating,[2]; Rate 16 g/ha,55
same,Barnyardgrass 2 plant response rating,[2]; Rate 32 g/ha,100
same,Barnyardgrass 3 plant response rating,[2]; Rate 32 g/ha,65
same,Barnyardgrass 2 plant response rating,[2]; Rate 64 g/ha,100
same,Barnyardgrass 3 plant response rating,[2]; Rate 64 g/ha,100
same,Barnyardgrass 2 plant response rating,[2]; Rate 125 g/ha,100
same,Barnyardgrass 3 plant response rating,[2]; Rate 125 g/ha,100
same,Japonica rice plant response rating,"[3]; Rate 32 g/ha, 0 to 100 scale",20
same,Japonica rice plant response rating,"[3]; Rate 64 g/ha, 0 to 100 scale",20
same,Japonica rice plant response rating,"[3]; Rate 125 g/ha, 0 to 100 scale",25
same,Japonica rice plant response rating,"[3]; Rate 250 g/ha, 0 to 100 scale",25
same,Japonica rice plant response rating,[3]; [9],30
same,Barnyardgrass 2 plant response rating,"[4]; Rate 32 g/ha, 0 to 100 scale",100
same,Barnyardgrass 2 plant response rating,"[4]; Rate 64 g/ha, 0 to 100 scale",100
same,Barnyardgrass 2 plant response rating,"[4]; Rate 125 g/ha, 0 to 100 scale",100
same,Barnyardgrass 2 plant response rating,"[4]; Rate 250 g/ha, 0 to 100 scale",100
same,Barnyardgrass 2 plant response rating,[4]; [9],100
same,Waterchestnut plant response rating,"[5]; Rate 32 g/ha, 0 to 100 scale",0
same,Waterchestnut plant response rating,"[5]; Rate 64 g/ha, 0 to 100 scale",15
same,Waterchestnut plant response rating,"[5]; Rate 125 g/ha, 0 to 100 scale",25
same,Waterchestnut plant response rating,"[5]; Rate 250 g/ha, 0 to 100 scale",40
same,Waterchestnut plant response rating,[5]; [9],65
same,Japonica 1 plant response rating,[6]; Rate 8 g/ha,0
same,Japonica 2 plant response rating,[6]; Rate 8 g/ha,10
same,Japonica 1 plant response rating,[6]; Rate 16 g/ha,10
same,Japonica 2 plant response rating,[6]; Rate 16 g/ha,15
same,Japonica 1 plant response rating,[6]; Rate 32 g/ha,20
same,Japonica 2 plant response rating,[6]; Rate 32 g/ha,20
same,Japonica 1 plant response rating,[6]; Rate 64 g/ha,35
same,Japonica 2 plant response rating,[6]; Rate 64 g/ha,25
same,Japonica 1 plant response rating,[6]; Rate 125 g/ha,55
same,Japonica 2 plant response rating,[6]; Rate 125 g/ha,40
same,Arrowhead plant response rating,"[7]; Rate 32 g/ha, 0 to 100 scale",10
same,Arrowhead plant response rating,"[7]; Rate 64 g/ha, 0 to 100 scale",10
same,Arrowhead plant response rating,"[7]; Rate 125 g/ha, 0 to 100 scale",40
same,Arrowhead plant response rating,"[7]; Rate 250 g/ha, 0 to 100 scale",30
same,Arrowhead plant response rating,[7]; [9],40
same,Umbrella sedge plant response rating,"[8]; Rate 32 g/ha, 0 to 100 scale",0
same,Umbrella sedge plant response rating,"[8]; Rate 64 g/ha, 0 to 100 scale",0
same,Umbrella sedge plant response rating,"[8]; Rate 125 g/ha, 0 to 100 scale",20
same,Umbrella sedge plant response rating,"[8]; Rate 250 g/ha, 0 to 100 scale",50
same,Umbrella sedge plant response rating,[8]; [9],80
COCN1C(=O)COc2cc(F)c(-c3nn4c(c3Cl)CCCC4)cc21 [Compound 55],Duck salad plant response rating,"[1]; Rate 4 g/ha, 0 to 100 scale",0
same,Duck salad plant response rating,"[1]; Rate 8 g/ha, 0 to 100 scale",0
same,Duck salad plant response rating,"[1]; Rate 16 g/ha, 0 to 100 scale",0
same,Duck salad plant response rating,"[1]; Rate 32 g/ha, 0 to 100 scale",0
same,Duck salad plant response rating,"[1]; Rate 64 g/ha, 0 to 100 scale",10
same,Barnyardgrass 2 plant response rating,[2]; Rate 8 g/ha,15
same,Barnyardgrass 3 plant response rating,[2]; Rate 8 g/ha,20
same,Barnyardgrass 2 plant response rating,[2]; Rate 16 g/ha,70
same,Barnyardgrass 3 plant response rating,[2]; Rate 16 g/ha,40
same,Barnyardgrass 2 plant response rating,[2]; Rate 32 g/ha,80
same,Barnyardgrass 3 plant response rating,[2]; Rate 32 g/ha,50
same,Barnyardgrass 2 plant response rating,[2]; Rate 64 g/ha,100
same,Barnyardgrass 3 plant response rating,[2]; Rate 64 g/ha,75
same,Japonica rice plant response rating,"[3]; Rate 4 g/ha, 0 to 100 scale",10
same,Japonica rice plant response rating,"[3]; Rate 8 g/ha, 0 to 100 scale",10
same,Japonica rice plant response rating,"[3]; Rate 16 g/ha, 0 to 100 scale",20
same,Japonica rice plant response rating,"[3]; Rate 32 g/ha, 0 to 100 scale",25
same,Japonica rice plant response rating,"[3]; Rate 64 g/ha, 0 to 100 scale",25
same,Barnyardgrass 2 plant response rating,"[4]; Rate 4 g/ha, 0 to 100 scale",0
same,Barnyardgrass 2 plant response rating,"[4]; Rate 8 g/ha, 0 to 100 scale",0
same,Barnyardgrass 2 plant response rating,"[4]; Rate 16 g/ha, 0 to 100 scale",10
same,Barnyardgrass 2 plant response rating,"[4]; Rate 32 g/ha, 0 to 100 scale",40
same,Barnyardgrass 2 plant response rating,"[4]; Rate 64 g/ha, 0 to 100 scale",100
same,Waterchestnut plant response rating,"[5]; Rate 4 g/ha, 0 to 100 scale",0
same,Waterchestnut plant response rating,"[5]; Rate 8 g/ha, 0 to 100 scale",0
same,Waterchestnut plant response rating,"[5]; Rate 16 g/ha, 0 to 100 scale",10
same,Waterchestnut plant response rating,"[5]; Rate 32 g/ha, 0 to 100 scale",15
same,Waterchestnut plant response rating,"[5]; Rate 64 g/ha, 0 to 100 scale",20
same,Japonica 1 plant response rating,[6]; Rate 8 g/ha,25
same,Japonica 2 plant response rating,[6]; Rate 8 g/ha,15
same,Japonica 1 plant response rating,[6]; Rate 16 g/ha,75
same,Japonica 2 plant response rating,[6]; Rate 16 g/ha,20
same,Japonica 1 plant response rating,[6]; Rate 32 g/ha,85
same,Japonica 2 plant response rating,[6]; Rate 32 g/ha,25
same,Japonica 1 plant response rating,[6]; Rate 64 g/ha,98
same,Japonica 2 plant response rating,[6]; Rate 64 g/ha,35
same,Arrowhead plant response rating,"[7]; Rate 4 g/ha, 0 to 100 scale",0
same,Arrowhead plant response rating,"[7]; Rate 8 g/ha, 0 to 100 scale",0
same,Arrowhead plant response rating,"[7]; Rate 16 g/ha, 0 to 100 scale",20
same,Arrowhead plant response rating,"[7]; Rate 32 g/ha, 0 to 100 scale",20
same,Arrowhead plant response rating,"[7]; Rate 64 g/ha, 0 to 100 scale",30
same,Umbrella sedge plant response rating,"[8]; Rate 4 g/ha, 0 to 100 scale",0
same,Umbrella sedge plant response rating,"[8]; Rate 8 g/ha, 0 to 100 scale",0
same,Umbrella sedge plant response rating,"[8]; Rate 16 g/ha, 0 to 100 scale",20
same,Umbrella sedge plant response rating,"[8]; Rate 32 g/ha, 0 to 100 scale",80
same,Umbrella sedge plant response rating,"[8]; Rate 64 g/ha, 0 to 100 scale",80

# Reference: patent US6358885B1, “Substituted phenylheterocyclic herbicides” (Mississippi State University, priority 1992, dated 2002)
